From patent US6258780A (priority 1997, dated 2001)
“Also recorded” adds a separate entry of the source.

Tests used:
[1] = BBB permeability to Evans Blue following stress, adrenaline or atropine (Example 2)
[2] = system: serum butyrylcholinesterase (BuChE); assay: serum BuChE activity after injection in mice; assay type: in vivo, mouse; conditions: for reduction of serum BuChE activity from normal levels: non-stressed mice, 0.1 mg/kg i.p., 10 minutes, 3 animals/group
Method: Symptoms were reported at the end of the study.
Stress Induction: Stress was induced in adult FVB/N mice by 2×4 minute forced swim with a 4 minute rest interval in a 60×60 cm water bath at about 21° C., adapted from Melia et al, [1994]. […] Animals were decapitated 10 minutes following injection, trunk blood was collected [Melia et al, 1994], and cerebral cortex was quickly dissected and homogenized in solution D (10 mM Tris-HCl, pH 7.4, 1M NaCl, 1% Triton-X100, 1 mM EDTA, 1:10 weight/volume)[Neville et al, 1990]

[3] = system: hippocampal slices, CA1 area; assay type: cell-based
hippocampal slices = assay: paired-pulse facilitation in hippocampal slices; assay type: cell-based
c-fos mRNA [4] = assay: brain c-fos mRNA by RT-PCR after pyridostigmine in mice; assay type: in vivo, mouse; conditions: 20 minutes following 2 mg/kg
AChE mRNA = assay: brain AChE mRNA by RT-PCR after pyridostigmine in mice; assay type: in vivo, mouse; conditions: pyridostigmine administration, FIG. 10A lower panel
synaptophysin mRNA = synaptophysin mRNA control test, in vivo or in brain slices; assay type: cell-based
[5] = remark: listed apart in the source
Method: Symptoms were reported at the end of the study. […] Percent inhibition (standard deviation was calculated in comparison to the average activity calculated in non-injected, not-stressed (n=12) and stressed (n=6) animals.
In both human studies each individual was asked to report on a yes/no questionnaire regarding symptoms related to the drug.

[6] = system: readthrough (I4) AChEmRNA; assay: readthrough (I4) AChEmRNA by RT-PCR / in situ hybridization; assay type: cell-based, mouse
Excerpt: FIG. 7A are photographs showing kinetic follow-up of RT-PCR: Positions of primer pairs specific for the alternatively spliced AChEmRNA subtypes are presented on the left. [Primer pair 1361+/1869- ("E6") detects mRNA encoding the synaptic AChE form; […] ("I4/E5") detects both a 549 bp product of readthrough AChEmRNA and a 432 bp product encoding the GPI-lined red blood cell (RBC) form of the enzyme]. Note that both in vivo stress and in vitro AChE inhibition promoted significant increases of the readthrough (I4) but not the synaptic (E6) or erythrocyte (E5) forms of AChEmRNA. […] Signals were detected using alkaline phosphatase-streptavidin conjugates and Fast Red as a substrate. Shown are cortical layers II-V (upper panels), and magnified pyramidal neurons of cortical layer no. 2 (lower panels).
Selective induction of readthrough AChEmRNA following stress and AChE inhibition were measured using kinetic follow-up of RT-PCR. The positions of primer pairs specific for the alternatively spliced AChEmRNA subtypes are presented on the left of the FIG. 7. [Primer pair 1361+/1869- ("E6") detects mRNA encoding the synaptic AChE form; 1361+/175- ("I4/E5") detects both a 549 bp product of readthrough AChEmRNA and a 432 bp product encoding the GPI-lined red blood cell (RBC) form of the enzyme]. Both in vivo stress (forced swimming) and in vitro AChE inhibition promoted significant increases of the readthrough (I4) but not the synaptic (E6) or erythrocyte (E5) forms of AChEmRNA. […] Signals were detected using alkaline phosphatase-streptavidin conjugates and Fast Red as a substrate. […] 2 (lower panels).

serum BuChE [7] = conditions: 0.1-0.5 mg/kg; cited from earlier work
serum BuChE [8] = conditions: cited from earlier work
[9] = similar regimen; cited from earlier work
[10] = cited from earlier work
[11] = PNS symptoms questionnaire, pyridostigmine in humans
c-fos mRNA [12] = assay type: cell-based, mouse; conditions: with pyridostigmine 1 mM, 1 hour; BAPTA-AM 1 uM or TTX
ChAT or VAChT mRNA = assay type: cell-based, mouse; conditions: with pyridostigmine 1 mM, 1 hour; BAPTA-AM 1 uM or TTX
[13] = HRP penetration into brain following swim stress (immunohistochemistry)
[14] = brain penetration of Evans-blue dye following stress; conditions: stressed versus control

Molecule: CNCC(O)c1ccc(O)c(O)c1 (centres unmarked) [adrenaline]
- effectiveness in opening the BBB compared with stress ([1]; administered doses and time course, atropine or adrenaline ip): somewhat less effective

Molecule: CNC(=O)Oc1ccc2c(c1)[C@]1(C)CCN(C)[C@@H]1N2C [physostigmine]
- reduction of serum BuChE activity from normal levels [2]: 22.6+/-5.4%
- responsiveness of cholinergic pathways to stimulation [3]: prominently muted, approaching that displayed by control slices
- paired-pulse facilitation responses, 1 hour (hippocampal slices; 1 mM physostigmine, 1 hour): prolonged duration and the intense signals of facilitation responses
- paired-pulse facilitation responses, 3 hours (hippocampal slices; 1 mM physostigmine, 3 hours): suppression of both these responses

Molecule: CC(C)NC[C@H](O)COc1cccc2ccccc12 (racemic) [propanolol]
- time for body temperature to return to normal (post injection): ≤ 80 min
- time of reduction in body temperature (pyridostigmine alone or together with propanolol): ≤ 40 min

Molecule: CN(C)C(=O)Oc1ccc[n+](C)c1 [pyridostigmine]
- reduction of serum BuChE activity from normal levels [2]: 16.7+/-6.9%
- BuChE inhibition in stressed mice ([2]; stressed mice, 0.1 mg/kg): tendency toward limitation of BuChE inhibition
- amount of c-fos and AChE mRNA (earlier appearance of PCR product) (c-fos mRNA [4]): increase in the amount of c-fos (upper panel) and AChE mRNA (lower panel)
- AChE mRNA product appearance (AChE mRNA): earlier appearance
- synaptophysin mRNA (synaptophysin mRNA): no change
- amplitude and rate of rise of evoked population spikes in CA1 [3]: increase in the amplitude and rate of rise of evoked population spikes
- soldiers reporting CNS symptoms, average ([5]; Gulf War, 213 soldiers): 23.6%
- soldiers reporting CNS symptoms, range ([5]; Gulf War, 213 soldiers): 6.2-53.4%
- participants reporting CNS symptoms, average ([5]; peace time, double-blind): 8.3%
- participants reporting CNS symptoms, range ([5]; peace time, double-blind): 0-16.6%
- subcellular localization of I4-AChEmRNA ([6]; pyridostigmine 2 mg/kg): shifted from around the nucleus under control conditions to the entire cell bodies and their apical dendrites
- I4-AChEmRNA labeling of cortical layers ([6]; pyridostigmine 2 mg/kg, control: layers II+V): intensified and included layer III+IV
- readthrough AChE mRNA labeling of somata and apical dendrites, all cortical layers ([6]; pyridostigmine exposure): intensely labeled
- inhibition of serum BuChE activity at protective doses (serum BuChE [7]): 15-30%
- inhibition efficacy of serum butyrylcholinesterase, Gulf War (serum BuChE [8]): not modified
- frequency of reported CNS symptoms, increase during the Gulf War [9]: > 3 fold
- CNS functions in primates ([10]; doses >1 mg/kg): perturb CNS functions
- CNS functions in non-stressed primates or humans at peace time ([10]; non-stressed): unaffected CNS functions
- soldiers reporting PNS symptoms, average ([11]; Gulf War, 213 soldiers): 11.4%
- soldiers reporting PNS symptoms, range ([11]; Gulf War, 213 soldiers): 6.1-20.4%
- participants reporting PNS symptoms, average ([11]; peace time, double-blind): 18.8%
- participants reporting PNS symptoms, range ([11]; peace time, double-blind): 5.5-38.9%

Molecule: CC(=O)OCOC(=O)CN(CC(=O)OCOC(C)=O)c1ccccc1OCCOc1ccccc1N(CC(=O)OCOC(C)=O)CC(=O)OCOC(C)=O [BAPTA-AM]
- anti-cholinesterase-induced change in c-fos mRNA (c-fos mRNA [12]): attenuated; also recorded: suppressed
- physostigmine-induced prolongation of paired-pulse facilitation (hippocampal slices; 1 uM physostigmine and 1 uM BAPTA-AM, 1 hour): complete prevention
- enhanced paired-pulse facilitation (hippocampal slices; BAPTA-AM, FIG. 5A): prevented
- anti-cholinesterase-induced change in ChAT mRNA (ChAT or VAChT mRNA): attenuated; also recorded: suppressed

Molecule: HRP: horseradish peroxidase, used to study changes in the BBB
- HRP staining of the hippocampus ([13]; following forced swimming): highest number of stained cells; also recorded: strong HRP staining
- penetration of HRP into brain ([13]; forced swimming stress): increased penetration
- HRP staining, Corpus callosum, non-stressed control ([13]; non-stressed control): little staining
- HRP staining, Hippocampus, CA1-2, non-stressed control ([13]; non-stressed control): no staining
- HRP staining, Medial hypothalamus (arcuate nucleus), non-stressed control ([13]; non-stressed control): + (diffuse staining)
- HRP staining, Hippocampus, CA1-2, stressed ([13]; stressed): staining of cells
- HRP staining of central nucleus of amygdala and paraventricular nucleus of hypothalamus ([13]; stressed mice): absence of HRP staining

Molecule: Cc1cc(-c2ccc(/N=N/c3ccc4c(S(=O)(=O)O)cc(S(=O)(=O)O)c(N)c4c3O)c(C)c2)ccc1/N=N/c1ccc2c(S(=O)(=O)O)cc(S(=O)(=O)O)c(N)c2c1O [Evans-blue]
- increase in brain penetration of Evans-blue under stress [14]: > 10 fold
- BBB permeability to Evans Blue ([1]; following stress or 10 minutes after ip adrenaline or atropine): enhanced BBB permeability

Molecule: NCCc1ccc(O)c(O)c1 [DA]
- enhancement of the body temperature reduction by coinjection (DA 1.0 mg/kg with pyridostigmine 0.6 mg/kg): approximately 0.5 °C

Molecule: CN1[C@@H]2CC[C@H]1C[C@@H](OC(=O)C(CO)c1ccccc1)C2 (some centres unmarked) [atropine]
- both phases of physostigmine-mediated hyperactivity [3]: blocked
- suppression 1 hour after removal of atropine [3]: no suppression took place

Molecule: C[N+](C)(C)CCOC(N)=O [carbachol]
- amplitude of population spikes [3]: increased the amplitude of population spikes
- signal increase by carbamylcholine [3]: dose-dependent increases in signal
